Measurements: PMC12030497, “Plasma Protein Binding, Biostability, Metabolite Profiling, and CYP450 Phenotype of TPB15 Across Different Species: A Novel Smoothened Inhibitor for TNBC Therapy” (Pharmaceutics, 2025)
Where two headings read alike, the source gives them in different places.

Key:
[1] = Plasma protein binding, overall across the five species; format: in vitro ADME, mice, rats, dogs, monkeys, humans; conditions: monkey, human, all species tested, low, medium and high concentrations (4 to 16 μg/mL), read-out: plasma protein binding rate, overall
Protocol: To prepare plasma samples of TPB15 at final concentrations of 4, 8, and 16 μg/mL, 1 μL of TPB15 dissolved in dimethyl sulfoxide (DMSO) at low (400 μg/mL), medium (800 μg/mL), and high (1600 μg/mL) concentrations was added to 99 μL of blank plasma obtained from humans, rats, mice, monkeys, and dogs. Each concentration was prepared in six replicates. The samples were then divided into two groups: one for determining the pre-ultrafiltration concentration (Cpre) and the other for measuring the post-ultrafiltration concentration (Ct), following the evaluation of the non-specific binding coefficient (NSB) of TPB15 to the ultrafiltration tubes. For Cpre determination, 10 μL of the sample was mixed with 990 μL of plasma, vortexed thoroughly, and analyzed for drug concentration using the previously reported liquid chromatography–tandem mass spectrometry (LC-MS/MS) method. For Ct determination, the samples were first incubated in a water bath at 37 °C for 3 h. After incubation, they were transferred to ultrafiltration tubes and centrifuged at 14,000 rpm for 20 min at 4 °C using a centrifuge (Sigma 3K-15) from Sigma Laborzentrifugen GmbH (Osterode am Harz, Germany). After centrifugation, 10 μL of the ultrafiltrate was mixed with 990 μL of plasma, vortexed, and analyzed for concentration using the same LC-MS/MS method. […]

[2] = parameters: method as in PMID 39158678; conditions: pharmacokinetic studies in rats; cited from earlier work
Stability in dog plasma = format: in vitro ADME, beagle dog; conditions: 37 °C, 453 μg/L
Protocol: (§1) A total of 696.5 μL of plasma from each species (healthy mice, rat, dog, monkey, and human) were spiked with 3.5 μL of TPB15 stock solution ([…] in DMSO), resulting in a final TPB15 concentration of 453 μg/L in plasma. The mixture was then aliquoted into three tubes, each with a volume of 200 μL, maintaining a final DMSO concentration of 0.5%. After incubation in a water bath at 37 °C for 0, 30, 60, 90, and 120 min, 100 µL samples were transferred into EP tubes. Subsequently, 10 µL of internal standard working solution were added, followed by vortex mixing. Then, 500 µL of ethyl acetate were added, and the mixture was vortexed again before being centrifuged at 14,800 rpm at 4 °C for 10 min. A total of 400 µL of the supernatant were transferred into a new EP tube and placed in a vacuum concentrator (Bionoon-VAC2) (Bionoon Biotech, Shanghai, China) to dry for 1 h. The dried residue was reconstituted with 100 µL of mobile phase, vortex mixed thoroughly, and centrifuged again at 14,800 rpm at 4 °C for 10 min. A volume of 5 µL of the supernatant was then taken for LC-MS/MS analysis to determine the drug concentration. Additionally, a blank control group was established, in which PBS buffer was used in place of blank plasma in the incubation system.

[3] = Stability in human plasma; format: in vitro ADME; conditions: 37 °C, 453 μg/L
Protocol: as §1

Stability in mice plasma = format: in vitro ADME, KM mice; conditions: 37 °C, 453 μg/L
Protocol: as §1

[4] = Metabolic stability in rat liver microsomes (RLM); format: in vitro ADME, Sprague-Dawley rat
Protocol: A total of 450 μL liver microsomes from mice, rat, dog, monkey, and human were spiked with 0.5 μL of TPB15 solution and pre-incubated in a water bath at 37 °C for 10 min. Following this, 50 μL of NADPH were added to initiate the reaction. The concentrations of each substance in the incubation system are detailed in Table 1. After initiating the metabolic reaction, 50 μL aliquots were removed at incubation times of 0, 5, 15, 30, 45, 60, and 90 min and transferred to 150 μL of icy methanol solution containing the internal standard to terminate the reaction. The mixtures were swirled for 2 min and then centrifuged at 14,800 rpm at 4 °C for 10 min. […] Three samples were prepared in parallel at each time point. Additionally, both a positive control group and a blank control group were established. In the positive control group, substrate testosterone was incubated with liver microsomes from mice, rat, dog, monkey, and human. The concentrations of substrate testosterone were measured at 0 and 90 min, and the changes in concentration before and after incubation were compared to confirm the activity of the liver microsomes. The blank control group included one drug-containing inactivated liver microsome sample for each species. The metabolic stability parameters, including in vitro elimination half-life (T1/2) and in vitro intrinsic clearance rate (CLint), were calculated based on this graph using the following formulas: in vitro elimination half-life (T1/2) = −0.693/k and in vitro intrinsic clearance rate (CLint) = (0.693 × incubation medium (mL))/(liver microsomes (mg) × T1/2).

[5] = test system: CYP450 enzymes in human liver microsomes; assay: Metabolic enzyme phenotype of TPB15 in human liver microsomes with selective CYP450 inhibitors; format: in vitro ADME
Protocol: The specific procedure was as follows: a total of 0.5 μL of the substrate TPB15 and 0.5 μL of each specific inhibitor were mixed with 449 μL of human liver microsomes, and the mixture was incubated at 37 °C for 10 min. Subsequently, 50 μL of NADPH with a concentration of 10 mM in PBS were introduced to initiate the reaction. After 90 min, 50 μL of the reaction mixture were transferred to a 150 μL ice-cold methanol solution containing an internal standard to terminate the reaction. The mixture was vortexed for 2 min and then centrifuged at 4 °C at 14,800 rpm for 10 min. A volume of 130 μL of the supernatant was then transferred to a new EP tube, which was centrifuged again at 4 °C at 14,800 rpm for another 10 min. Finally, 5 μL of the supernatant were injected for the determination of substrate TPB15 concentration. Three parallel samples were prepared for each time point. The experiment also included a positive control group and a negative control group. In the positive control group, substrate TPB15 was incubated with human liver microsomes for 90 min without the addition of inhibitors. In the negative control group, the substrate TPB15 was incubated for 90 min without inhibitors, with human liver microsomes replaced by an equal volume of phosphate-buffered saline (PBS). The metabolic rate of TPB15 in human liver microsomes was represented by the elimination rate of the substrate TPB15.

## O=C(Nc1ccc(Cl)c(-c2nnc3c(Cl)cccn23)c1)c1ccc(Cl)nc1Cl [TPB15]
[1]; SD (rat), KM (mouse), beagle (dog)
  fraction unbound at 3 h: 0.176 to 0.191
[1]; mouse, rat, dog
  fraction unbound at 3 h: 0.176 to 0.185
[2]
  half-life in rats: relatively long half-life
Stability in dog plasma; incubation 0 min
  Remaining proportion of substrate TPB15 (%) Beagle dog: 100.0 ± 1.1%
Stability in dog plasma; incubation 30 min
  Remaining proportion of substrate TPB15 (%) Beagle dog: 99.3 ± 0.7%
Stability in dog plasma; incubation 60 min
  Remaining proportion of substrate TPB15 (%) Beagle dog: 98.9 ± 0.4%
Stability in dog plasma; incubation 90 min
  Remaining proportion of substrate TPB15 (%) Beagle dog: 97.1 ± 1.4%
Stability in dog plasma; incubation 120 min
  Remaining proportion of substrate TPB15 (%) Beagle dog: 98.0 ± 0.8%
[3]; incubation 0 min
  Remaining proportion of substrate TPB15 (%) Human: 100.0 ± 1.0%
[3]; incubation 30 min
  Remaining proportion of substrate TPB15 (%) Human: 97.3 ± 1.5%
[3]; incubation 60 min
  Remaining proportion of substrate TPB15 (%) Human: 97.7 ± 0.6%
[3]; incubation 90 min
  Remaining proportion of substrate TPB15 (%) Human: 98.0 ± 1.0%
[3]; incubation 120 min
  Remaining proportion of substrate TPB15 (%) Human: 97.2 ± 1.1%
Stability in mice plasma; incubation 0 min
  Remaining proportion of substrate TPB15 (%) KM mice: 100.0 ± 0.7%
Stability in mice plasma; incubation 30 min
  Remaining proportion of substrate TPB15 (%) KM mice: 98.6 ± 0.9%
Stability in mice plasma; incubation 60 min
  Remaining proportion of substrate TPB15 (%) KM mice: 98.0 ±1.5%
Stability in mice plasma; incubation 90 min
  Remaining proportion of substrate TPB15 (%) KM mice: 97.1 ± 0.7%
Stability in mice plasma; incubation 120 min
  Remaining proportion of substrate TPB15 (%) KM mice: 98.0 ± 1.2%
[4]; Sprague-Dawley rat microsomes, 90 min, 5 μM TPB15, 0.5 mg/mL, NADPH 1 mM
  remaining proportion of TPB15 in liver microsomes: 76.0 ± 0.89%
[4]; Sprague-Dawley, rat, liver microsomes, RLM, 5 μM TPB15, 0.5 mg/mL microsomes, read-out: CLint (mL/min/mg), in vitro intrinsic clearance rate
  microsomal CLint at 5 μM: 0.0344 mL/min/mg
[5]
  primary metabolic enzymes involved in TPB15 metabolism: CYP2C9 and CYP3A4
